Source: the supplement of paper PMC10307832

Columns and labels:
Experiment in all cases: relative viability (nuclei count vs DMSO), 5 days (fraction); higher = more cells survive
[1] = compound: O=C(CCCCCCNC(=O)c1cnc(N(c2ccccc2)c2ccccc2)nc1)NO [Ricolinostat] + C[C@@H](Oc1cc(-c2cnn(C3CCNCC3)c2)cnc1N)c1c(Cl)ccc(F)c1Cl [Crizotinib] (partner 1 µM)
How it was run: (§1)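 Cells from lung cancer lines were seeded into 1536-well plates and, one day later, dosed by pin tool. Treatments were either a single drug or a fixed dose of an anchor drug with five library-drug doses (not always all listed) in √10 steps. After 5 days, nuclei were stained in a one-step fixation (final 0.05% Triton X-100, 1% formaldehyde, 1 ug/ml Hoechst) and counted on 4× images, and relative viability is the treated-to-vehicle nuclei ratio, as the median of duplicate plates.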

[2] = compound: O=C(CCCCCCNC(=O)c1cnc(N(c2ccccc2)c2ccccc2)nc1)NO [Ricolinostat] + Cc1cc(Nc2cc(N3CCN(C)CC3)nc(Sc3ccc(NC(=O)C4CC4)cc3)n2)n[nH]1 [Tozasertib] (partner 0.1 µM)
How it was run: as §1

Ricolinostat + Foretinib = compound: O=C(CCCCCCNC(=O)c1cnc(N(c2ccccc2)c2ccccc2)nc1)NO [Ricolinostat] + COc1cc2c(Oc3ccc(NC(=O)C4(C(=O)Nc5ccc(F)cc5)CC4)cc3F)ccnc2cc1OCCCN1CCOCC1 [Foretinib] (partner 0.25 µM)
How it was run: as §1

Ricolinostat + Alpelisib = compound: O=C(CCCCCCNC(=O)c1cnc(N(c2ccccc2)c2ccccc2)nc1)NO [Ricolinostat] + Cc1nc(NC(=O)N2CCC[C@H]2C(N)=O)sc1-c1ccnc(C(C)(C)C(F)(F)F)c1 [Alpelisib] (partner 2 µM)
How it was run: as §1

Ricolinostat + OSI-027 = compound: O=C(CCCCCCNC(=O)c1cnc(N(c2ccccc2)c2ccccc2)nc1)NO [Ricolinostat] + COc1cccc2cc(-c3nc([C@H]4CC[C@H](C(=O)O)CC4)n4ncnc(N)c34)[nH]c12 [OSI-027] (partner 0.5 µM)
How it was run: as §1

Cell Line | relative viability ([1]; first compound 0.08 µM) | relative viability ([1]; first compound 0.253 µM) | relative viability ([1]; first compound 0.8 µM) | relative viability ([1]; first compound 2.53 µM) | relative viability ([2]; first compound 0.08 µM) | relative viability ([2]; first compound 0.253 µM) | relative viability ([2]; first compound 0.8 µM) | relative viability ([2]; first compound 2.53 µM) | relative viability (Ricolinostat + Foretinib; first compound 0.08 µM) | relative viability (Ricolinostat + Foretinib; first compound 0.253 µM) | relative viability (Ricolinostat + Foretinib; first compound 0.8 µM) | relative viability (Ricolinostat + Foretinib; first compound 2.53 µM) | relative viability (Ricolinostat + Alpelisib; first compound 0.08 µM) | relative viability (Ricolinostat + Alpelisib; first compound 0.253 µM) | relative viability (Ricolinostat + Alpelisib; first compound 0.8 µM) | relative viability (Ricolinostat + Alpelisib; first compound 2.53 µM) | relative viability (Ricolinostat + OSI-027; first compound 0.08 µM) | relative viability (Ricolinostat + OSI-027; first compound 0.253 µM) | relative viability (Ricolinostat + OSI-027; first compound 0.8 µM) | relative viability (Ricolinostat + OSI-027; first compound 2.53 µM)
HARA | 0.925 | 0.948 | 0.926 | 0.712 | 0.106 | 0.16 | 0.076 | 0.0848 | 0.968 | 0.901 | 0.767 | 0.646 | 0.545 | 0.79 | 0.693 | 0.618 | 0.295 | 0.479 | 0.401 | 0.175
NCI-H2087 | 0.891 | 0.791 | 0.709 | 0.688 |  | 0.253 | 0.164 | 0.168 |  | 1.09 | 1.07 | 1.05 | 1.14 | 1.21 | 0.949 | 0.999 |  | 0.603 | 0.545 | 0.45
NCI-H1650 | 1.04 | 0.926 | 0.714 | 0.784 | 0.428 | 0.431 | 0.265 | 0.256 | 1.17 | 1.05 | 0.886 | 0.635 |  |  |  |  | 0.471 | 0.586 | 0.459 | 0.361
NCI-H1563 | 0.862 | 0.822 | 0.732 | 0.689 |  |  |  |  | 0.89 | 0.874 | 0.844 | 0.793 | 0.916 | 0.994 | 0.862 | 0.857 | 0.759 | 0.731 | 0.774 | 0.62
NCI-H1666 | 0.767 | 1.16 | 0.944 | 0.776 | 0.544 | 0.591 | 0.489 | 0.358 | 0.967 | 1.01 | 1.02 | 0.914 | 0.938 | 0.895 | 0.997 | 0.463 | 0.716 | 0.884 | 0.845 | 0.691
LCLC-103H | 0.951 | 1.02 | 1.04 | 1.05 | 0.443 | 0.401 | 0.393 | 0.337 | 0.688 | 0.798 | 0.787 | 0.748 | 0.814 | 0.971 | 0.883 | 0.959 | 0.363 | 0.447 | 0.48 | 0.444
HOP-62 | 0.912 | 0.855 | 0.924 | 0.87 | 0.374 | 0.344 | 0.35 | 0.312 | 1 | 1.03 | 1 | 1.09 | 0.932 | 0.901 | 0.844 | 0.848 | 0.636 | 0.815 | 0.79 | 0.625
BEN | 0.745 | 0.789 | 0.903 | 0.68 | 0.539 | 0.558 | 0.534 | 0.517 | 0.657 | 0.598 | 0.483 | 0.481 | 0.951 | 0.901 | 0.978 | 0.655 | 0.287 | 0.344 | 0.324 | 0.307
